In PubChem BioAssay (NCI) one finds GI50 and TGI data, which are given here for 8 compounds.

Structures are written as SMILES.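 How tested: cells in 96-well plates exposed to compound for 48 hours at five concentrations. Abbreviation: GI50, concentration required for 50% inhibition of growth. The concentration for full growth arrest is given as TGI.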

Among the test systems are 786-0 renal; A498 renal; CCRF-CEM leukemia; HCT-15 colon; HL-60(TB) leukemia; HOP-62 NSCLC; NCI-H23 lung; SF-268 CNS; SK-MEL-28 melanoma; U251 CNS.
Common to all, as to assay: NCI tumour cell line growth inhibition, 48 h

With `CN1CCCC1c1cccnc1.O=C(O)c1ccccc1O.O=C([O-])c1ccccc1[OH2+].O=C([O-])c1ccccc1[OH2+].O=C([O-])c1ccccc1[OH2+].[Mn+2]` (stereo not given), the GI50 in the assay on 786-0 renal is over 100 µM; in the assay on A498 renal, over 100 µM; in the assay on CCRF-CEM leukemia, 23.3 µM; in the assay with HCT-15 colon, over 100 µM; in the assay with HL-60(TB) leukemia, over 100 µM; in the assay on HOP-62 NSCLC, over 100 µM. The GI50 is over 100 µM with NCI-H23 lung, 22.3 µM with SF-268 CNS, over 100 µM in the assay on SK-MEL-28 melanoma and over 100 µM with U251 CNS. In addition, the TGI in the assay on 786-0 renal, in the assay with A498 renal, in the assay on CCRF-CEM leukemia, in the assay with HCT-15 colon, in the assay with HL-60(TB) leukemia and in the assay on HOP-62 NSCLC was over 100 µM each time. Further, the TGI in the assay with NCI-H23 lung was over 100 µM; in the assay on SF-268 CNS, 73.4 µM; in the assay with SK-MEL-28 melanoma, over 100 µM; in the assay on U251 CNS, over 100 µM.
As for `Cc1nnc2n1N=C(CC(=O)c1ccc(O)cc1O)CN2N`, the TGI in the assay on 786-0 renal is over 100 µM; in the assay on A498 renal, over 100 µM; in the assay with CCRF-CEM leukemia it was over 100 µM; in the assay on HCT-15 colon it was 29.7 µM; in the assay on HL-60(TB) leukemia, over 100 µM; in the assay with HOP-62 NSCLC, over 100 µM. Moreover, the TGI in the assay with NCI-H23 lung, with SF-268 CNS, in the assay with SK-MEL-28 melanoma and with U251 CNS was over 100 µM each time.
Consider `S=C(Nc1ccccc1)Nc1[nH]c(=S)sc1-c1nc2ccccc2[nH]1`, for which the TGI with 786-0 renal is over 100 µM; in the assay with A498 renal it was over 100 µM; in the assay with CCRF-CEM leukemia it was over 100 µM; in the assay with HCT-15 colon, over 100 µM; in the assay on HL-60(TB) leukemia, over 100 µM; with HOP-62 NSCLC, 66.8 µM. Besides, the TGI with NCI-H23 lung, in the assay on SF-268 CNS, with SK-MEL-28 melanoma and in the assay on U251 CNS was over 100 µM throughout.
Consider `COc1cc[nH]c1/C=C1\C(=O)Nc2ccc(F)c(C#CC3(O)CCOCC3)c21`, for which the GI50 was 0.824 µM in the assay on 786-0 renal; 0.573 µM in the assay with A498 renal; 0.713 µM in the assay on CCRF-CEM leukemia; 0.481 µM in the assay with HCT-15 colon; 0.686 µM with HL-60(TB) leukemia; 0.878 µM in the assay on HOP-62 NSCLC. The GI50 is 0.609 µM with NCI-H23 lung, 0.714 µM with SF-268 CNS, 0.677 µM in the assay with SK-MEL-28 melanoma and 0.519 µM in the assay with U251 CNS. The TGI in the assay on 786-0 renal is over 25 µM; in the assay with A498 renal, 1.67 µM; in the assay on CCRF-CEM leukemia, 1.86 µM; in the assay on HCT-15 colon it was over 15.3 µM; in the assay on HL-60(TB) leukemia it was 1.6 µM; in the assay with HOP-62 NSCLC it was over 10.4 µM. For the same compound, the TGI in the assay with NCI-H23 lung turned out to be 2.61 µM; in the assay with SF-268 CNS it was 2.03 µM; with SK-MEL-28 melanoma it was 3.11 µM; in the assay on U251 CNS, 5.43 µM.
For the compound `COc1ccc(S(=O)(=O)N/N=C/C(=O)O)cc1`, the TGI in the assay with 786-0 renal turned out to be 971 µM; in the assay with A498 renal, 1210 µM; with CCRF-CEM leukemia it was 712 µM; in the assay with HCT-15 colon, 1080 µM; with HL-60(TB) leukemia, 463 µM; in the assay with HOP-62 NSCLC it was 1130 µM. Also, the TGI with NCI-H23 lung is 867 µM; in the assay with SF-268 CNS, 975 µM; in the assay with SK-MEL-28 melanoma it was over 1250 µM; in the assay on U251 CNS, 1200 µM.
As to `Cc1c(C(C)C)cc(OCCO)cc1C(C)C`, the TGI in the assay on 786-0 renal was 63 µM; in the assay with A498 renal, 96.6 µM; in the assay on CCRF-CEM leukemia it was over 100 µM; in the assay on HCT-15 colon, over 100 µM; with HL-60(TB) leukemia, 56.9 µM; in the assay on HOP-62 NSCLC, over 100 µM. For the same compound, the TGI in the assay with NCI-H23 lung, in the assay on SF-268 CNS, in the assay with SK-MEL-28 melanoma and in the assay on U251 CNS was over 100 µM each time.
Regarding `C/C(=N\NS(=O)(=O)c1ccc(C)cc1)c1ccc[n+]([O-])n1`, the TGI in the assay on 786-0 renal is over 100 µM; with A498 renal it was over 100 µM; in the assay with CCRF-CEM leukemia, 82.5 µM; with HCT-15 colon it was over 100 µM; in the assay on HL-60(TB) leukemia, 91 µM; in the assay on HOP-62 NSCLC, over 100 µM. For the same compound, the TGI with NCI-H23 lung, in the assay with SF-268 CNS, with SK-MEL-28 melanoma and in the assay on U251 CNS was over 100 µM each time.
Take `COC(=O)[C@H](Cc1ccccc1)NC(=O)c1csc([C@@H](C[C@H](C(C)C)N(C)C(=O)[C@@H](NC(=O)[C@H]2CCCCN2C)C2CC2)OC(C)=O)n1`: the GI50 in the assay on 786-0 renal is 0.064 µM; in the assay with A498 renal, 0.0693 µM; in the assay on CCRF-CEM leukemia, 0.021 µM; in the assay on HCT-15 colon it was 0.0915 µM; with HL-60(TB) leukemia, 0.0137 µM; in the assay with HOP-62 NSCLC, 0.0749 µM. In addition, the GI50 in the assay on NCI-H23 lung was 0.146 µM; in the assay on SF-268 CNS, 0.111 µM; in the assay on SK-MEL-28 melanoma it was 1.01 µM; in the assay on U251 CNS, 0.0669 µM. The TGI with 786-0 renal was over 25 µM; with A498 renal, 1.67 µM; with CCRF-CEM leukemia it was over 25 µM; in the assay with HCT-15 colon it was over 25 µM; in the assay with HL-60(TB) leukemia, 0.193 µM; in the assay with HOP-62 NSCLC, over 25 µM. In addition, the TGI in the assay with NCI-H23 lung, in the assay with SF-268 CNS, in the assay on SK-MEL-28 melanoma and with U251 CNS was over 25 µM throughout.
